We go through four compounds from ChEMBL document CHEMBL1141836, “Sporovexins A-C and a new preussomerin analog: antibacterial and antifungal metabolites from the coprophilous fungus Sporormiella vexans” (1999).

The test system of one experiment is Ascobolus. The experiment is described as follows: Antifungal activity against Ascobolus furfuraceus NRRL 6460 assessed as reduction in radical growth rate at 200 ug/disk by centerpoint inoculation disk assay. Format: functional. More on the design: scale not given: the % may be the effect or the level left.
A further experiment has as its system Bacillus subtilis. As to the kind of experiment: Antibacterial activity against Bacillus subtilis ATCC 6051 at 100 ug/disk by standard disk assay. The note with it: read-out: IZ. In kind it is functional.
Another experiment has as its system Candida albicans. The experiment is described as follows: Antifungal activity against Candida albicans ATCC 10453 at 200 ug/disk by standard disk assay. In kind it is functional, organism-based.

The source made the active and inactive calls. No cut-off for these calls is given here.

For `CC(CCOc1ccc(C(=O)O)cc1)C(=O)O` (configuration not stated) [SPOROVEXIN A], in the experiment with Ascobolus, the Activity is listed as 90%. Moreover, the zone of inhibition at 100 µg/disc in the experiment with Bacillus subtilis turned out to be 9 mm. Also, the outcome with Candida albicans was inactive.
Consider `CC(CCOc1ccc(C(=O)NCCC(=O)O)cc1)C(=O)O` (configuration not stated), for which the result with Candida albicans was inactive.
As for `O=C1C[C@@H](O)[C@]23Oc4ccc(O)c5c4[C@](Oc4cccc1c42)(O3)[C@@H]1O[C@@H]1[C@H]5O`, in the experiment with Ascobolus, the Activity was 40%. Further, the outcome in the experiment on Candida albicans was inactive.
On to `CC(C(=O)O)C(O)COc1ccc(C(=O)O)cc1` (configuration not stated), for which, in the experiment on Candida albicans, the outcome was inactive.
